The results in this text go back to patent EP0639971B1, “THERAPEUTIC COMBINATIONS” (priority 1992, dated 1993).

Each structure is given as a SMILES string.

Holding throughout (format): cell-based
One assay concerns HIV. The experiment in a line: In vitro passage experiments: acquisition of resistance to oxathiolane nucleosides.
Assay [1] relates to zidovudine-resistant HIV strain (HIVRTMC) with M184 to V mutation. The experiment in a line: Antiviral sensitivity (IC50) of zidovudine-resistant HIV strain with M184 to V mutation introduced. The conditions noted are these: Human immunodeficiency virus 1.
Assay [2] relates to zidovudine-resistant HIV strain (HIVRTMC). As to the kind of experiment: Antiviral sensitivity (IC50) of zidovudine-resistant HIV strain. The conditions noted are these: Human immunodeficiency virus 1; HIVRTMC before introduction of mutation.
The test system of assay [3] is HIV-1 population containing four mutations in the HIV-RT which confer zidovudine resistance. The experiment in a line: Passage of zidovudine-resistant HIV-1 in cell culture with increasing concentrations of Chloro-TIBO; antiviral sensitivity (IC50).
The test system of assay [4] is zidovudine-resistant virus with Y181 to C, together with M184 to V. The experiment in a line: Antiviral sensitivity (IC50) of zidovudine-resistant HIV strain with Y181 to C and M184 to V mutations introduced.

`Nc1ccn([C@H]2CS[C@@H](CO)O2)c(=O)n1` [3TC, (-)-2',3'-dideoxy-3'-thiacytidine]: the “acquisition of resistance by HIV” value in the assay on HIV is recorded as “rapid resistance”.

A word on the IC50: it is the concentration at which inhibition is half-maximal. Low readings indicate higher potency, high ones lower potency. For `Nc1nc(=O)n([C@@H]2CS[C@H](CO)O2)cc1F` [FTC, (-)-2'3'-dideoxy-5-fluoro-3'-thiacytidine], the values for the IC50 in assay [1] and in assay [2] were greater than 500000 nM and 640 nM, respectively. In addition, the “acquisition of resistance by HIV” value in the assay on HIV was “rapid resistance”.

Consider `Cc1cn([C@H]2C[C@H](N=[N+]=[N-])[C@@H](CO)O2)c(=O)[nH]c1=O` [zidovudine, 3'-azido-3'-deoxythymidine], for which the IC50 is less than 100 nM in assay [3] (Human immunodeficiency virus 1, after five passages with Chloro-TIBO); roughly 2000 nM in assay [3] (Human immunodeficiency virus 1, before passage with Chloro-TIBO); 170 nM in assay [1]; 1260 nM in assay [2]; 40 nM in assay [4] (Human immunodeficiency virus 1). Besides, the “increase of sensitivity of the virus population to zidovudine” value in assay [3] (after five passages with increasing concentrations of Chloro-TIBO) was “about twenty fold”. The “sensitivity / resistance of the resulting mutant virus strain” value in assay [4] is reported as “completely sensitive”.
